Common to all, as to test: Antibacterial activity in vitro, MIC by broth microdilution
In assay [1] the test system is E. coli Esco_25922. In kind it is cell-based. The settings on record: Table 3, Strain ID M: E. coli Esco_25922; unit assumed. A digest of the protocol: (§1)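 MIC = lowest drug concentration with no visible growth. Read after 18-24 h at 35° C. in 2-fold dilution series; inoculum 3×10^5–7×10^5 CFU/mL in CAMHB, supplemented with 2-5% lysed horse blood and incubated in 5-10% CO2 for pneumococci.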

Assay [2] concerns E. faecalis Enfa_29212. The assay is classed as cell-based. The note with it: Table 3, Strain ID C: E. faecalis Enfa_29212; unit assumed. A digest of the protocol: as §1
The subject of assay [3] is S. epidermidis Step_14990. In kind it is cell-based. The note with it: Table 3, Strain ID A: S. epidermidis Step_14990; unit assumed. A digest of the protocol:
as §1

Assay [4] relates to S. epidermidis Step_f50654 Pen S. The assay is classed as cell-based. The note with it: Table 3, Strain ID B: S. epidermidis Step_f50654 Pen S; unit assumed. A digest of the protocol:
as §1

Assay [5] deals with S. pyogenes Stpy_8668. The assay is classed as cell-based. The settings on record: Table 3, Strain ID D: S. pyogenes Stpy_8668. In outline: as §1
In assay [6] the test system is S. pneumoniae Stpn_280-962 Pen S. In kind it is cell-based, Streptococcus pneumoniae. The settings on record: Table 3, Strain ID G: S. pneumoniae Stpn_280-962 Pen S. A digest of the protocol:
as §1

Assay [7] relates to S. pneumoniae Stpn_297-749 Pen R. In kind it is cell-based, Streptococcus pneumoniae. The note with it: Table 3, Strain ID F: S. pneumoniae Stpn_297-749 Pen R. A digest of the protocol:
as §1

In assay [8] the test system is S. pneumoniae Stpn_49619. The assay is classed as cell-based, Streptococcus pneumoniae. The settings on record: Table 3, Strain ID E: S. pneumoniae Stpn_49619. In outline:
as §1

Assay [9] concerns S. pneumoniae Stpn_Erm 6849. The assay is classed as cell-based, Streptococcus pneumoniae. The settings on record: Table 3, Strain ID H: S. pneumoniae Stpn_Erm 6849; unit assumed. In outline: as §1
Assay [10] relates to S. pneumoniae Stpn_Erm S 4297. The assay is classed as cell-based, Streptococcus pneumoniae. The settings on record: Table 3, Strain ID I: S. pneumoniae Stpn_Erm S 4297; unit assumed. In outline: as §1
In assay [11] the test system is S. pneumoniae Stpn_Mef 5654. In kind it is cell-based, Streptococcus pneumoniae. The note with it: Table 3, Strain ID J: S. pneumoniae Stpn_Mef 5654; unit assumed. In outline:
as §1

The test system of assay [12] is S. pneumoniae Stpn_Mef S 3427. The assay is classed as cell-based, Streptococcus pneumoniae. The note with it: Table 3, Strain ID K: S. pneumoniae Stpn_Mef S 3427. In outline:
as §1

Assay [13] deals with H. influenzae Hain_49247. The assay is classed as cell-based, Haemophilus influenzae. The settings on record: Table 3, Strain ID L: H. influenzae Hain_49247; unit assumed. A digest of the protocol: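 Visible-growth inhibition defined the MIC, obtained by NCCLS broth microdilution at 35° C. over 18-24 hours with a final inoculum of 3×10^5–7×10^5 CFU/mL.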

In brackets after ≈: the same amount, converted by molar mass.

With `CC[C@H]1OC(=O)[C@H](C)C(=O)[C@H](C)[C@@H](O[C@@H]2O[C@H](C)C[C@H](N(C)C)[C@H]2O)[C@@](C)(OC)C[C@@H](C)C(=O)[C@H](C)[C@@H]2[C@@H]1OC(=O)N2CCCn1cnc(-c2ccccc2)c1` [Compound 4714], the MIC in assay [1] was above 50 µg/mL; in assay [2], 0.4 µg/mL (≈ 0.511 µM); in [3] it was 6.25 µg/mL (≈ 7.98 µM); in assay [4], 6.25 µg/mL (≈ 7.98 µM); in assay [5] (unit assumed), 0.1 µg/mL (≈ 0.128 µM); in assay [6] it was “≦0.5”. Also, the MIC result in [7] was “≦0.5”; in assay [8], “≦0.5”; in assay [9], above 50 µg/mL; in assay [10], 6.25 µg/mL (≈ 7.98 µM); in assay [11], 0.4 µg/mL (≈ 0.511 µM); in [12] (unit assumed), 0.1 µg/mL (≈ 0.128 µM). The same compound gave an MIC in [13] above 50 µg/mL.
In the case of `CC[C@H]1OC(=O)[C@H](C)[C@@H](O[C@H]2C[C@@](C)(OC)[C@@H](O)[C@H](C)O2)[C@H](C)[C@@H](O[C@@H]2O[C@H](C)C[C@H](N(C)C)[C@H]2O)[C@](C)(OC)C[C@@H](C)C(=O)[C@H](C)[C@@H](O)[C@]1(C)O` [Clar., clarithromycin, reference compound], the MIC in assay [1] is 50 µg/mL (≈ 66.8 µM); in [2] it was 0.78 µg/mL (≈ 1.04 µM); in assay [3], 0.2 µg/mL (≈ 0.267 µM); in assay [4], 0.2 µg/mL (≈ 0.267 µM); in assay [5] it was “≦0.05”; in assay [6], “≦0.05”. Further, the MIC result in assay [7] was “≦0.05”; in assay [8] it was “≦0.05”; in assay [9], above 50 µg/mL; in assay [10] it was above 50 µg/mL; in [11], 6.25 µg/mL (≈ 8.36 µM); in assay [12] (unit assumed), 1.56 µg/mL (≈ 2.09 µM). For the same compound, the MIC in assay [13] was determined as 12.5 µg/mL (≈ 16.7 µM).
On to `CC[C@H]1OC(=O)[C@H](C)C(=O)[C@H](C)[C@@H](O[C@@H]2O[C@H](C)C[C@H](N(C)C)[C@H]2O)[C@@](C)(OC)C[C@@H](C)C(=O)[C@H](C)[C@@H]2[C@@H]1OC(=O)N2CCCCn1cnc2ncccc21` [Compound 4713], for which the MIC in assay [1] was 50 µg/mL (≈ 64.8 µM); in assay [2], 0.1 µg/mL (≈ 0.13 µM); in assay [3], 0.4 µg/mL (≈ 0.518 µM); in assay [4], 0.4 µg/mL (≈ 0.518 µM); in [5], “≦0.5”; in assay [6], “≦0.5”. The MIC result in [7] was “≦0.5”; in assay [8], “≦0.5”; in assay [9] it was 0.78 µg/mL (≈ 1.01 µM); in assay [10], 0.1 µg/mL (≈ 0.13 µM); in assay [11], 3.13 µg/mL (≈ 4.05 µM); in [12] (unit assumed) it was 0.4 µg/mL (≈ 0.518 µM). In addition, the MIC in assay [13] was found to be 3.13 µg/mL (≈ 4.05 µM).
On to `CC[C@H]1OC(=O)[C@H](C)C(=O)[C@H](C)[C@@H](O[C@@H]2O[C@H](C)C[C@H](N(C)C)[C@H]2O)[C@@](C)(OC)C[C@@H](C)C(=O)[C@H](C)[C@H]2N(CCCCc3ccnc4ccccc34)C(=O)O[C@]12CC` [Compound 7283], for which the MIC in assay [1] is 12.5 µg/mL (≈ 15.4 µM); in assay [2], 0.1 µg/mL (≈ 0.123 µM); in assay [3], 0.2 µg/mL (≈ 0.247 µM); in assay [4], 0.2 µg/mL (≈ 0.247 µM); in assay [5], “≦0.05”; in [6], “≦0.05”. The MIC result in assay [7] was “≦0.05”; in assay [8], “≦0.05”; in [9], 0.4 µg/mL (≈ 0.494 µM); in assay [10] it was 0.1 µg/mL (≈ 0.123 µM); in assay [11], 0.4 µg/mL (≈ 0.494 µM); in assay [12] it was “≦0.05”. For the same compound, the MIC in assay [13] came to 3.13 µg/mL (≈ 3.86 µM).
